According to PubChem BioAssay AID248 (DTP/NCI, 2004):
Inconclusive results and toxic doses are left out. Rule as the data show it: active = T/C of 150% or more; inactive = T/C below 125%.

Tested on: L1210 leukemia ip in BDF1 mice, survival T/C
Test: NCI In Vivo Anticancer Drug Screen. Data for tumor model L1210 Leukemia (intraperitoneal) in B6D2F1 (BDF1) mice
Settings: endpoint: mean survival time, higher = longer survival
Procedure, shortened: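 Each compound was tested against a transplantable tumor grown in mice. The endpoint was survival, with treated animals benchmarked against vehicle controls as a simple ratio.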

[1] = dose: 100.0 mg/kg/injection, schedule: Q01DX009 (ip), vehicle: Klucel (hydroxypropylcellulose) (HPC)
[2] = dose: 200.0 mg/kg/injection, schedule: Q01DX009 (ip), vehicle: Klucel (hydroxypropylcellulose) (HPC)
[3] = dose: 400.0 mg/kg/injection, schedule: Q01DX009 (ip), vehicle: Klucel (hydroxypropylcellulose) (HPC)
[4] = dose: 50.0 mg/kg/injection, schedule: Q01DX001 (ip), vehicle: saline
[5] = dose: 100.0 mg/kg/injection, schedule: Q01DX001 (ip), vehicle: saline
[6] = dose: 200.0 mg/kg/injection, schedule: Q01DX001 (ip), vehicle: saline
[7] = dose: 50.0 mg/kg/injection, schedule: Q01DX009 (ip), vehicle: saline with Tween-80
[8] = dose: 100.0 mg/kg/injection, schedule: Q01DX009 (ip), vehicle: saline with Tween-80
[9] = dose: 200.0 mg/kg/injection, schedule: Q01DX009 (ip), vehicle: saline with Tween-80
[10] = dose: 400.0 mg/kg/injection, schedule: Q01DX001 (ip), vehicle: saline
[11] = dose: 12.5 mg/kg/injection, schedule: Q01DX009 (ip), vehicle: saline
[12] = dose: 100.0 mg/kg/injection, schedule: Q01DX009 (ip), vehicle: saline
[13] = dose: 400.0 mg/kg/injection, schedule: Q01DX009 (ip), vehicle: saline with Tween-80
[14] = dose: 100.0 mg/kg/injection, schedule: Q04DX002 (ip), vehicle: saline with Tween-80
[15] = dose: 200.0 mg/kg/injection, schedule: Q04DX002 (ip), vehicle: saline with Tween-80
[16] = dose: 400.0 mg/kg/injection, schedule: Q04DX002 (ip), vehicle: saline with Tween-80

Measured: T/C

CCCCOC(=O)c1[nH]cnc1/N=N\N(C)C
inactive: dose: 10.0 mg/kg/injection, schedule: Q01DX009 (ip), vehicle: carboxymethylcellulose (CMC) 100 % of control | dose: 18.0 mg/kg/injection, schedule: Q01DX001 (ip), vehicle: other 98 % of control | dose: 20.0 mg/kg/injection, schedule: Q01DX009 (ip), vehicle: carboxymethylcellulose (CMC) 109 % of control | dose: 28.0 mg/kg/injection, schedule: Q01DX001 (ip), vehicle: other 93 % of control | dose: 40.0 mg/kg/injection, schedule: Q01DX009 (ip), vehicle: carboxymethylcellulose (CMC) 114 % of control | dose: 42.0 mg/kg/injection, schedule: Q01DX001 (ip), vehicle: other 100 % of control | dose: 63.0 mg/kg/injection, schedule: Q01DX001 (ip), vehicle: other 102 % of control | dose: 72.0 mg/kg/injection, schedule: Q01DX015 (ip), vehicle: other 110 % of control | dose: 100.0 mg/kg/injection, schedule: Q01DX001 (ip), vehicle: other 111 % of control | dose: 120.0 mg/kg/injection, schedule: Q01DX015 (ip), vehicle: other 101 % of control

Cc1ccc(NC(=O)Nc2cccc(C(F)(F)F)c2)cc1C
inactive: [1] 98 % of control | [2] 98 % of control | [3] 91 % of control

c1ccc(-c2nc3nnnn3nc2-c2ccccc2)cc1
inactive: [4] 100 % of control | [5] 103 % of control | [6] 98 % of control

O=C(CNC(=O)Nc1ccc(Cl)c(Cl)c1)N/N=C/C=C/c1ccccc1
inactive: [7] 96 % of control | [8] 96 % of control | [9] 93 % of control

CCCCCCCCCCCC[Si](Cl)(Cl)Cl
inactive: dose: 75.0 mg/kg/injection, schedule: Q01DX001 (ip), vehicle: saline 105 % of control

O=C(/C=C/c1ccccc1)c1ccc(N=Cc2ccccc2)cc1
inactive: [4] 94 % of control | [5] 94 % of control | [6] 90 % of control | [10] 105 % of control

Cc1[nH][nH]c(=O)c1N=Nc1ccccc1
inactive: dose: 50.0 mg/kg/injection, schedule: Q01DX009 (ip), vehicle: Klucel (hydroxypropylcellulose) (HPC) 94 % of control | [1] 98 % of control | [2] 98 % of control

Clc1ccc2n[nH]c(Cl)c2c1
inactive: [11] 95 % of control | dose: 25.0 mg/kg/injection, schedule: Q01DX009 (ip), vehicle: saline 101 % of control | dose: 50.0 mg/kg/injection, schedule: Q01DX009 (ip), vehicle: saline 98 % of control | [5] 92 % of control | [12] 96 % of control | [6] 92 % of control | [10] 102 % of control

OCC1C2CC3C(C2)C13 (stereo not given)
inactive: dose: 100.0 mg/kg/injection, schedule: Q01DX001 (ip), vehicle: carboxymethylcellulose (CMC) 101 % of control | dose: 200.0 mg/kg/injection, schedule: Q01DX001 (ip), vehicle: carboxymethylcellulose (CMC) 93 % of control | dose: 400.0 mg/kg/injection, schedule: Q01DX001 (ip), vehicle: carboxymethylcellulose (CMC) 90 % of control

Cc1nc2ccc(N(C)C)cc2c2c1Cc1c(C)nc3ccc(N(C)C)cc3c1O2
inactive: [8] 95 % of control | [9] 92 % of control | [13] 110 % of control

CC(=O)CC(=O)N(C(=O)CC(C)=O)c1ccccc1C
inactive: [7] 105 % of control | [8] 105 % of control | [9] 94 % of control

O=C(CCCN1CCC2(CC1)C(=O)NCN2c1ccccc1)c1ccc(F)cc1
inactive: dose: 0.78 mg/kg/injection, schedule: Q01DX009 (ip), vehicle: saline 96 % of control | dose: 0.78 mg/kg/injection, schedule: Q04DX003 (ip), vehicle: saline 98 % of control | dose: 1.56 mg/kg/injection, schedule: Q01DX009 (ip), vehicle: saline 105 % of control | dose: 1.56 mg/kg/injection, schedule: Q04DX003 (ip), vehicle: saline 96 % of control | dose: 3.12 mg/kg/injection, schedule: Q01DX009 (ip), vehicle: saline 107 % of control | dose: 3.12 mg/kg/injection, schedule: Q04DX003 (ip), vehicle: saline 105 % of control | dose: 6.25 mg/kg/injection, schedule: Q01DX009 (ip), vehicle: saline 97 % of control | dose: 6.25 mg/kg/injection, schedule: Q04DX003 (ip), vehicle: saline 106 % of control | [11] 92 % of control | dose: 12.5 mg/kg/injection, schedule: Q04DX003 (ip), vehicle: saline 124 % of control | dose: 50.0 mg/kg/injection, schedule: Q04DX003 (ip), vehicle: saline 120 % of control | dose: 200.0 mg/kg/injection, schedule: Q04DX003 (ip), vehicle: saline 93 % of control

COC(=O)C1=C(C(=O)OC)C2CCC1O2
inactive: [12] 112 % of control | [14] 105 % of control | dose: 200.0 mg/kg/injection, schedule: Q01DX009 (ip), vehicle: saline 106 % of control | [15] 101 % of control | dose: 400.0 mg/kg/injection, schedule: Q01DX009 (ip), vehicle: saline 95 % of control | [16] 94 % of control

O=C1NC(=O)C2CCCCC12 (stereo not given)
inactive: [14] 90 % of control | dose: 100.0 mg/kg/injection, schedule: Q04DX003 (ip), vehicle: saline with Tween-80 96 % of control | [15] 121 % of control | dose: 200.0 mg/kg/injection, schedule: Q04DX003 (ip), vehicle: saline with Tween-80 104 % of control | [16] 107 % of control | dose: 400.0 mg/kg/injection, schedule: Q04DX003 (ip), vehicle: saline with Tween-80 104 % of control

C[N+]1(N)CCCCCC1
inactive: dose: 100.0 mg/kg/injection, schedule: Q04DX002 (ip), vehicle: saline 94 % of control | dose: 200.0 mg/kg/injection, schedule: Q04DX002 (ip), vehicle: saline 113 % of control | dose: 400.0 mg/kg/injection, schedule: Q04DX002 (ip), vehicle: saline 87 % of control

Cc1ccc(NC(=O)Oc2ccc(-c3ccccc3)cc2)cc1
inactive: [1] 107 % of control | [2] 100 % of control | [3] 92 % of control

OCCNc1nc2ccc(Br)cc2c2ccccc12
inactive: [1] 87 % of control | dose: 100.0 mg/kg/injection, schedule: Q04DX003 (ip), vehicle: Klucel (hydroxypropylcellulose) (HPC) 93 % of control | dose: 200.0 mg/kg/injection, schedule: Q04DX003 (ip), vehicle: Klucel (hydroxypropylcellulose) (HPC) 93 % of control | dose: 400.0 mg/kg/injection, schedule: Q04DX003 (ip), vehicle: Klucel (hydroxypropylcellulose) (HPC) 106 % of control

COc1ccc(/C=C/C(=O)c2ccc(OCc3ccccc3)c(OC)c2)cc1OC
inactive: [7] 105 % of control | [8] 104 % of control | [9] 98 % of control | [13] 90 % of control | dose: 500.0 mg/kg/injection, schedule: Q01DX009 (ip), vehicle: saline with Tween-80 102 % of control

O=C(NCc1cnccn1)c1ccco1
inactive: dose: 50.0 mg/kg/injection, schedule: Q01DX005 (ip), vehicle: saline 109 % of control | dose: 100.0 mg/kg/injection, schedule: Q01DX005 (ip), vehicle: saline 111 % of control | dose: 200.0 mg/kg/injection, schedule: Q01DX005 (ip), vehicle: saline 104 % of control
